Results: patent US5314886A, “N-substituted lactams useful as cholecystokinin antagonists” (priority 1992, dated 1994)

Key:
[1] = target: T1, CCK-A (Rattus norvegicus, UniProt P30551); assay: Displacement of 125I-CCK-OP binding to rat pancreatic membranes (CCK-A binding); conditions: 125I-CCK-OP
T1 sequence (P30551 1-444): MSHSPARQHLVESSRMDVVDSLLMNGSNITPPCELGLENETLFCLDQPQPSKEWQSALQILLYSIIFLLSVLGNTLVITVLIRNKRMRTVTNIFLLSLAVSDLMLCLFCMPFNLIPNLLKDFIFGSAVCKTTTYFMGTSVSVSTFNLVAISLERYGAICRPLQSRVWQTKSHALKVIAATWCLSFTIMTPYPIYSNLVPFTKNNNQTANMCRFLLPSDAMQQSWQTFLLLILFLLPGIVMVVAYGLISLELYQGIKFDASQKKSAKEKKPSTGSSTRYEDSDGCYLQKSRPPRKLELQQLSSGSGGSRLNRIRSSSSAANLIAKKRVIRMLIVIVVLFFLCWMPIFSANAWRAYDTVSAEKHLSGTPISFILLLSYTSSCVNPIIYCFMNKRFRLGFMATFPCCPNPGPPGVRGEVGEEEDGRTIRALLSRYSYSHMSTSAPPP

[2] = test system: CCK receptors; assay: Rat gastric emptying: reversal of CCK-delayed gastric emptying; format: in vivo; conditions: CCK 100 μg/Kg i.p.; for CCK-delayed gastric emptying: ED50: IP
Experimental: Rat Gastric Emptying Protocol
A test meal for measuring gastric emptying in rats was prepared. Ten grams of methylcellulose (2% solution=15 centipoises; Aldrich Chemical Company, Milwaukee, Wisc. was added to 200ml of cold water and mixed at 20,000 rpm in a Waring blender to insure dispersion and hydration of the methylcellulose. In addition, two beef bouillon cubes (Wyler's, Columbus, Ohio) dissolved in 100 ml of warm water was added to the mixture, followed by 16 g of casein (Hammersten, Schwartz/Mann, Orangeburg, N.Y.), 8 g of powdered confectioners sugar and 8 g of cornstarch. The ingredients were mixed for two minutes at 20,000 rpm and the resultant test meal was refrigerated for 48 hours to allow trapped air to escape. Male Charles River Rats, Crl: COBS, CD (SD) BR Strain, 180-200 g body weight, were used in groups of six animals. The animals were food deprived for 24 hours prior to the experiment with access to water ad libitum. The compounds to be evaluated were prepared in a 0.5% aqueous methylcellulose solution. If insoluble, the mixture was homogenized for two minutes at 5500 rpm using a Try-R-Stir-R. The compounds were given intraperitoneally or intragastrically at a volume of 5 ml/kg, 60 minutes or 90 min, respectively, before the test meal. Control animals received only the vehicle. Cholecystokinin (100 μg/Kg, i.p.) was given 30 minutes before the test meal to delay gastric emptying by an effect elicited through CCK receptors. Sixty minutes after the test meal (2.0 ml/rat, i.g.), the rats were sacrificed by CO2 asphyxiation. The stomachs were removed intact and weighed. The stomachs were kept opened, gently rinsed with tap water, blotted dry with paper toweling, and the empty stomach weighed. The difference between the weight of the full and empty stomach is indicative of the amount of meal remaining in the stomach. The amount of meal remaining in the stomach was subtracted from the weight of 3 ml of the test meal to determine the amount of food emptied from the stomach during the test. Weight of the test meal was determined by weighing three samples (3 ml) at the beginning and three samples at the end of each experiment and calculating the mean. The mean and standard error of the amount of meal emptied were calculated for at least 5 doses of compound, and expressed as percent change from control.

[3] = target: T2, CCK-B (Cavia porcellus, UniProt H0VZC5); assay: Displacement of 125I-CCK-OP binding to guinea pig brain homogenates (CCK-B binding); conditions: guinea pig brain membranes; for inhibition at 10 µM: read-out: CCK-B binding GP brain membranes: percent displacement of 125I-CCK-OP
T2 construct: Rat pancreas or guinea pig brain was homogenized; from tissue; host or cells: guinea pig brain homogenate (membrane pellet)
T2 sequence (H0VZC5 1-426): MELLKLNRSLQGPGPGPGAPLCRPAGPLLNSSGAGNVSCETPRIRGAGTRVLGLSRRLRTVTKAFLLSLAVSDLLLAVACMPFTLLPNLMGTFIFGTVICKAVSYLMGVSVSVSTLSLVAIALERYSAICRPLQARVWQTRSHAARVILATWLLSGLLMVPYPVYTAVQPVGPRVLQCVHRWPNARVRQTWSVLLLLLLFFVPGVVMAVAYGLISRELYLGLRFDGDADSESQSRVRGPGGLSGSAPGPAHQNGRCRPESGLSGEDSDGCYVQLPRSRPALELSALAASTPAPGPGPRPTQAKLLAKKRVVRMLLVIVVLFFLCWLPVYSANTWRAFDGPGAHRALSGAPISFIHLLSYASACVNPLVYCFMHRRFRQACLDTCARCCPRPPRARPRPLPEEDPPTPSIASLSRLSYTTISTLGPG
Experimental: Percent displacement of ^125 I-CCK-OP binding to rat pancreatic membrane and guinea pig brain homogenates by compounds of the instant invention at different concentrations was used to quantify CCK-A and CCK-B receptor binding, respectively.
Binding of 125-CCK-OP to rat pancreas (CCK-A) and guinea pig brain (CCK-B) homogenates.
Rat pancreas or guinea pig brain was homogenized in 50 and 20 volumes, respectively, of 50 mM Tris-HCl buffer (pH 7.8 at 25° C.) with a Brinkmann polytron homogenizer. The homogenates were centrifuged twice at 50,000 x g for 20 min with an intermediate rehomogenization in fresh buffer. The final pellets were resuspended in 20 volumes (brain) or 40 volumes (pancreas) of incubation buffer [50 mM Tris-HCl, 5 mM MgCl2, 0.2% BSA, 5 mM dithiothreitol, 0.14 mg/ml bacitracin, pH 7.9 at 25° C.]. One milliliter of the final homogenate from brain or pancreas was diluted to 50 mL with incubation buffer to use in the binding assay.
Binding experiments were performed in a final volume of 1 mL in 13×100 mm borosilicate disposable culture tubes. To duplicate tubes were added 890 μL of freshly resuspended pancreas or brain homogenate; 73,000 dpm of […] (final concentration, 12 pM) and 10 μL of DMSO containing displacing agents (compounds or reference compounds, at the desired final concentrations). Nonspecific (nonsaturable) binding was determined in the presence of 1 μM unlabeled CCK-OP. After incubation for 30 min at 37° C. the binding was stopped by rapid filtration under a reduced pressure through glass fiber FPD-105 Whatman GF/B filters on Harvester and washed twice with 5 mL of ice-cold Tris buffer (50 mM Tris-HCl, pH 7.8). The radioactivity on the filters was counted in a gama counter. […] Specific binding was defined as the excess binding over that in blanks containing 1 μM unlabeled CCK-OP.
Determination of IC50 for displacing agents

Row | Structure (SMILES) | IC50 [1] [nM] | CCK-delayed gastric emptying: % Reversal @ Dose ([2]; 3 mpk IP) [%] | inhibition at 10 µM [3] [%] | CCK-delayed gastric emptying: % Reversal @ Dose ([2]; 1.0 mpk IP) [%] | CCK-delayed gastric emptying: ED50 [2] [mpk] | IC50 ([3]; 125I-CCK-OP, read-out: CCK-B binding GP brain membranes: IC50) [µM]
1 | O=C(N[C@H]1C(=O)N(c2ccccc2)C[C@H]1C(=O)O)c1ccc(Cl)c(Cl)c1 (relative stereo) [Example 35 (cis), cis-4-[[(3,4-dichlorophenyl)carbonyl]amino]-5-oxo-1-phenyl-3-pyrrolidinecarboxylic acid] | 58 | 57.9 | 35 | – | – | –
2 | O=C(N[C@H]1C(=O)N(c2ccccc2)C[C@H]1C(=O)O)c1cc2ccccc2[nH]1 (relative stereo) [Example 29, cis-4-[(1H-indol-2-ylcarbonyl)amino]-5-oxo-1-phenyl-3-pyrrolidinecarboxylicacid] | 17 | – | – | 86.3 | < 0.1 | 5.1
3 | O=C(N[C@H]1C(=O)N(c2ccccc2F)C[C@H]1C(=O)O)c1ccc2ccccc2c1 (relative stereo) [Example 44, cis-1-(2-Fluorophenyl)-4-[(2-naphthalenylcarbonyl]amino]-5-oxo-3-pyrrolidinecarboxylic acid] | – | 86 | 41 | – | 1.7 | –
4 | O=C(N[C@@H]1C(=O)N(c2ccccc2)C[C@@H]1C(=O)O)c1ccc2ccccc2c1 (relative stereo) [41 cis] | 15 | – | 48 | – | 0.41 | –
